# According to patent US20240400998A1, “BLASTOCYST-LIKE CELL AGGREGATE AND METHODS” (IMBA - INSTITUT FÜR MOLEKULARE BIOTECHNOLOGIE GMBH, priority 2021, published 2024):
# “Also recorded” adds a separate entry of the source.
# Columns and labels:
# Assay type in all cases: cell-based, human
# naive hPSC aggregates = assay: Induction of blastoids and trophospheres from naive hPSC aggregates in microwell arrays (yield counted by morphology); settings: for effect on blastoid formation / yield of blastoids: naive hPSC aggregates in PALY medium complemented with the molecule every day, 0 to 96 hours; for morphology of hPSC aggregates upon stimulation: stimulation of hPSC aggregates with LPA or NAEPA; for formation of blastoids versus trophospheres: 3 μM SC144 in PALLY medium for 4 days (0 to 96 hours)
# Procedure: Naive hPSCs or primed hPSCs cultures were treated with Accutase (Biozym, B423201) at 37° C. for 5 min, followed by gentle mechanical dissociation with a pipette. After centrifugation, the cell pellet was resuspended in PXGL medium, supplemented with Y-27632 (10 μM, MedChemExpress, HY-10583). To exclude MEF, the cell suspension was transferred onto gelatin coated plates and incubated at 37° C. for 70 min. After MEF exclusion, the cell number was determined using a Countess™ automated cell counter (Thermo Fisher Scientific) and Trypan Blue staining to assess cell viability. The cells were then resuspended in N2B27 media containing 10 μM Y-27632 (aggregation medium) and 3.0×10^4 cells were seeded onto a microwell array included into a well of a 96-well plate. The cells were allowed to form aggregates inside the microwell for a period ranging from 0 to 24 hours depending on the cell lines and based on their propensity for aggregation. Subsequently, the aggregation medium was replaced with PALLY medium-N2B27 supplemented with PD0325901 (1 μM), A 83-01 (1 μM, MedChemExpress, HY-10432), hLIF (10 ng/ml), 1-Oleoyl lysophosphatidic acid sodium salt (LPA) (500 nM, Tocris, 3854) and Y27632 (10 μM). The PALLY medium was refreshed every 24 hours. After 48 hours, the PALLY medium was replaced with N2B27 medium containing 500 nM LPA and 10 μM Y-27632. At 96 hours, a blastoid is defined based on morphological similarity to B6 staged human blastocyst, as a structure composed of a monolayered cyst with an overall diameter of 150-250 μm comprising one inner cell cluster. We also verified that, beyond the morphology, blastoids form analogs of the three blastocyst cell lineages in the sequential and timely manner of blastocyst development. […] The effect of LPA, NAEPA (Sigma-Aldrich, N0912) and Verteporfin (Selleck Chemicals Llc, S1786) on the yield of blastoid formation was assessed by culturing naive hPSC aggregates in PALY medium complemented with molecules added every day from 0 to 96 hours. The Verteporfin treatment was executed without exposure to the light. The effect of the aPKC inhibitor CRT0103390 (Gift from the laboratory of Kathy Niakan) was assessed by culturing naive hPSC aggregates in PALLY medium complemented with 2 μM CRT0103390 every day from 0 to 96 hours. The formation of trophospheres was induced by culturing naive hPSC aggregates in PALLY medium complemented with 2 μM XMU-MP-1 (Med Chem Express, HY-100526) or 3 μM SC-144 (Axon, 2324) every day from 0 to 96 hours. The BSA concentration was titrated within the range of 0-0.3% for individual cell lines used for the formation of the blastoids and trophospheres.
# The phase contrast images were acquired using Thermo Fisher scientific EVOS cell imaging system and inverted wide field microscope Axio VertA1. The number of blastoids or cavitated structures were counted manually for each well. After 96 hours, a blastoid is defined based on the morphological parameters as described in previous sections. The fluorescent images and timelapse images were acquired using Olympus IX83 microscope with Yokogawa W1 spinning disk (Software: CellSense 2.3; camera: Hamamatsu Orca Flash 4.0) or Nikon Eclipse Ti E inverted microscope, equipped with a Yokogawa W1 spinning disc (Software: Visiview 4.5.0.7; camera: Andor Ixon Ultra 888 EMCCD). The confocal images were analyzed and display images were exported using FIJI 1.53k or Bitplane Imaris 9.7.0 softwares. For cell counting, Bitplane Imaris software was used. Cell count parameters were set for size and fluorescence strength of voxels and then overall cell count data was obtained for each image using Imaris's spot function. Note that large cavities in blastoids increase the depth of the imaging field causing poor signal from deeply located cells. Therefore, our counting data in FIG. 8H could be underrepresented values, particularly in the case of trophectoderm cells. The quantification of the percentage of blastoids forming the NR2F2 axis was done manually. […]
# [1] = system: Open Face Endometrial Layer (OFEL); assay: In vitro implantation assay: attachment of blastoids or trophospheres onto OFELs; settings: for potential of endometrial cells to interact with human blastoids: EPC stimulation combined with the Wnt inhibitor
# Procedure: (§1) Endometrial organoids were passaged as described in the previous section. The dissociated cells were resuspended in Matrigel supplemented with Y-27632 (10 μM), cell suspension was deposited in 48-well plates and were cultured in endometrial expansion medium for 2 days. The organoids were stimulated first with E2 (10 nM, Sigma-Aldrich, E2758) for 2 days, followed by the mixture of E2 (10 nM), P4 (1 μM, Sigma-Aldrich, P8783), and CAMP (250 μM, Biolog, B 007) with or without XAV939 (10 µM) (EPC or EPCX respectively) for 4 days. For OFELs culture, organoids were recovered from the matrigel droplets with ice-cold DMEM/F12 and mechanical pipetting. The organoids were dissociated using TrypLE and mechanically triturated to generate single cells and seeded at the density of 3 to 3.5×10^4 cells per well into a 96-well glass bottom plate (Cellvis, P96-1.5H-N) and cultured for 2-3 days with stimulation. For contraceptive treatment, levonorgestrel (LNG) (10 μM, Sigma-Aldrich, PHR1850) was added every day to the medium two days after hormonal stimulation and continued until the end of experiment.
# Confluent OFELs were prepared for the implantation assay at least 2 hours prior to the deposition of blastoids, trophospheres, naive hPSCs or hTSCs aggregates by washing the OFEL two times with DMEM/F12 and adding IVC medium (Xiang, L. et al. Nature 577, 537-542 (2020)). Structures were then transferred onto the OFELs using a mouth pipette under an inverted microscope. After 24-48 hours, the medium was removed, the well was washed with PBS, fixed using 4% formaldehyde for 30 minutes at room temperature and subsequently processed for immunofluorescence staining. The percentage of attached structures was reported as the percentage of total transferred structures.
# [2] = system: endometrial cells (open-faced endometrial layer, OFEL); assay: qRT-PCR of window-of-implantation markers in endometrial cells (OFELs); settings: for expression of the gene PAEP (marker of the WOI): endometrial cells, Wnt inhibition
# Procedure: as §1
# RNA was extracted using the RNeasy mini kit (Qiagen, 74106) and cDNA synthesis was performed using the Superscript III (Invitrogen, 18080093) enzyme. qPCR reactions were performed using GoTaq® qPCR Master Mix (Promega, A6001) on CFX384 Touch Real-Time PCR Detection System (Bio-rad). Quantification was performed using Microsoft Office Excel by applying the comparative Cycle threshold (Ct) method. Relative expression levels were normalized to GAPDH.
compound,measurement,setting,value
1-Oleoyl lysophosphatidic acid sodium salt [LPA],effect on blastoid formation / yield of blastoids,naive hPSC aggregates; sodium salt,increases; also recorded: significantly improved efficiency; also recorded: enhanced blastoid formation
same,morphology of hPSC aggregates upon stimulation,naive hPSC aggregates,leads to the transition from a solid aggregate of cells to a cystic structure including a single fluid-filled cavity
Cc1ccc2nc(NC(=O)CSc3nc4c(c(=O)n3-c3ccccc3)SCC4)sc2c1 [IWP-2],potential of endometrial cells to interact with human blastoids,[1],increases the potential of endometrial cells to interact with human blastoids
Cn1ncnc2c(=O)n(C)c(=O)nc1-2 [PKF118-310],expression of the gene PAEP (marker of the WOI),[2],increase the expression of the gene PAEP
Cc1ccc(/C=N/NC(=O)c2ccccc2Oc2ccccc2)o1 [PNU-74654],potential of endometrial cells to interact with human blastoids,[1],increases the potential of endometrial cells to interact with human blastoids
NC(=O)c1ccc(-c2nc(-c3ccc4c(c3)OCO4)c(-c3ccccn3)[nH]2)cc1 [SB431542],blastoid formation with alternative TGF-b inhibitor,naive hPSC aggregates; 1 μM SB431542 for 4 days in combination with PLLY,also work
O=C(NNc1nc2cc(F)ccc2n2cccc12)c1cnccn1 [SC144],formation of blastoids versus trophospheres,naive hPSC aggregates,a decrease in the formation of blastoids and an increase in the formation of trophospheres; also recorded: induces the formation of trophospheres with limited or no epiblast-like cells and hypoblast-like cells; also recorded: yielded trophospheres
same,formation of blastoids versus trophospheres,naive hPSC aggregates; listed as SC-144,induced the formation of mono-layer cavitated aggregate that does not form an inner cluster of Epi-/Hypo-like cells
same,maturation of lineage specification of outer trophectoderm cells,naive hPSC aggregates; SC-144 treatment,compromised
same,attachment of trophospheres to stimulated endometrial cells (OFELs),[1]; trophospheres formed using 3 μM SC144,fail to attach and invade stimulated endometrial cells; also recorded: largely fail to attach and to invade the endometrial layer; also recorded: failed to attach to OFELs
Oc1nc(-c2ccc(C(F)(F)F)cc2)nc2c1CSCC2 [XAV939],"expression of PAEP, SPP1, LIF and DPP4 (RTqPCR)",[2]; endometrial cells cultured with XAV939,"increases the expression of PAEP, SPP1, LIF and DPP4"
same,expression of the gene PAEP (marker of the WOI),[2],increase the expression of the gene PAEP
same,potential of endometrial cells to interact with human blastoids,[1],increases the potential of endometrial cells to interact with human blastoids
CN1C(=O)c2sccc2N(C)c2nc(Nc3ccc(S(N)(=O)=O)cc3)ncc21 [XMU-MP-1],formation of trophospheres,naive hPSC aggregates; 2 μM XMU-MP-1 in PALLY medium for 4 days (0 to 96 hours),results in the formation of trophospheres; also recorded: induces the formation of trophospheres with limited or no epiblast-like cells and hypoblast-like cells; also recorded: yielded trophospheres
same,attachment of trophospheres to stimulated endometrial cells (OFELs),[1]; trophospheres formed using 2 μM XMU-MP-1,fail to attach and invade stimulated endometrial cells; also recorded: largely fail to attach and to invade the endometrial layer; also recorded: failed to attach to OFELs
"LIF: leukemia inhibitory factor, STAT3 agonist",blastoid formation efficiency versus LIF concentration,naive hPSC aggregates; dose dependent effect of LIF,blastoid formation efficiency increased with LIF concentration
N-[2-(phosphonooxy)ethyl]-9Z-octadecenamide [NAEPA],effect on blastoid formation / yield of blastoids,naive hPSC aggregates,increases; also recorded: enhanced blastoid formation
same,morphology of hPSC aggregates upon stimulation,naive hPSC aggregates,leads to the transition from a solid aggregate of cells to a cystic structure including a single fluid-filled cavity
Verteporfin,formation of a cavity,"naive hPSC aggregates; aggregate of hPSCs treated with Verteporfin, 1 μM",totally prevents the formation of a cavity
same,effect on blastoid formation / yield of blastoids,naive hPSC aggregates,decreases; also recorded: prevented blastoid formation
